# Experiment: Equilibrium solubility in phosphate buffers
# Format: physicochemical
# Details: aqueous buffer, thermodynamic from solid, n = 3, mean
# Method: Different phosphate buffers with a pH range of 1.0–7.4 were prepared as follows. Momobasic potassium phosphate (KH2PO4, 0.2 M) was prepared by dissolving 27.22 g of KH2PO4 in water and diluting with water to 1000 mL. Sodium hydroxide (NaOH, 0.2 M) was prepared by dissolving […] of NaOH in water and diluting with water to 1000 mL. Then, we placed 50 mL of the momobasic potassium phosphate solution in a 200 mL volumetric flask, added the specified volume of the sodium hydroxide solution and added water to volume.
# The equilibrium solubilities of NCE were determined in 0.1 mol/mL phosphate buffers with a pH range of 1.0–7.4. An excess amount of NCE was put into the buffer, placed in a 37 °C water bath and shaken for 3 days at a rate of 100 rpm. Samples were centrifuged at a rate of 1.3 × 10^4 rpm for 10 min and then measured by HPLC (Waters e2695 Separations Module, Milford, MA, USA). Each experiment was performed in triplicates.
compound,measurement,setting,value
"CNC(=O)c1cc(Oc2ccc(NC(=O)c3cccc(C(F)(F)F)c3)cc2)ccn1.Cc1ccc(S(=O)(=O)O)cc1.O [NCE, 2-methylcarbamoyl-4-{4-[3-(trifluoromethyl)benzamido]phenoxy} pyridinium 4-methylbenzenesulfonate monohydrate]",solubility at 3 days,"phosphate buffer pH 1.0, 37 °C",81.7 µg/mL
same,solubility at 3 days,"phosphate buffer pH 5.0, 37 °C",8.5 µg/mL
same,solubility at 3 days,"phosphate buffer pH 6.8, 37 °C",9.3 µg/mL
same,solubility at 3 days,"phosphate buffer pH 7.4, 37 °C",10 µg/mL

# Reference: article PMC4057667, “Study on Biopharmaceutics Classification and Oral Bioavailability of a Novel Multikinase Inhibitor NCE for Cancer Therapy” (International Journal of Molecular Sciences, 2014)
